# According to PMC4474874, “Effect of JAK Inhibitors on Release of CXCL9, CXCL10 and CXCL11 from Human Airway Epithelial Cells” (PLoS ONE, 2015):
# Read-outs that look alike come from different tables or passages of the source.
# Legend:
# [1] = test system: human primary airway epithelial cells; test: Release of CXCL9, CXCL10 and CXCL11 from human primary airway epithelial cells (ELISA); assay type: cell-based; settings: pre-treated 1h; for IC50: pooled primary cells
# Description: BEAS-2B cells (catalogue number CRL-9609) were purchased directly from American Type Culture Collection (Rockville, MD). Keratinocyte serum-free medium (K-SFM), bovine pituitary extract (BPE), and recombinant human epidermal growth factor (EGF) were purchased from Invitrogen (Paisley, UK). BEAS-2B cells were cultured in K-SFM containing 50 μg/ml BPE and 5 ng/ml EGF at 37°C in a humidified atmosphere comprising 5% (v/v) CO2 in air. Cells were cultured as monolayers in growth factor-free media for 24 h prior to stimulation. Human primary airway epithelial cells were cultured as monolayers from bronchial brushings from both male and female subjects (Table 1) and cultured in LHC-9 media (Invitrogen, Paisley, UK) in collagen (1% w/v) coated flasks. Samples were obtained from non-smokers, smokers and patients with COPD. […] The subjects were matched for age and smokers and COPD patients for smoking history (Table 1). All subjects gave informed written consent and the study was approved by the NRES London-Chelsea Research Ethics committee, study number 09/H0801/85.
# (§1) Cell-free supernatants were removed 20h post-stimulation and assayed for CXCL9, CXCL10 and CXCL11 using Duoset ELISA kits (R & D Systems Europe, Abingdon, UK) according to the manufacturer’s instructions. The detection limits of these assays are 62pg/ml, 31pg/ml, and 7.8 pg/ml respectively.
# Data are presented as mean ± SEM of ‘n’ independent determinations. Concentration-response curves were analysed by least-squares, non-linear iterative regression with the ‘Graphpad Prism’ curve fitting program (GraphPad software, San Diego, USA) and IC50 values were subsequently interpolated from curves of best-fit. Statistical differences were determined using the Kruskal–Wallis test followed by Dunn's multiple comparison test or a Wilcoxon signed rank test as appropriate. Values of P<0.05 were considered significant.
# Media was harvested and the concentrations of CXCL9 (panels a and d), CXCL10 (panels b and e) and CXCL11 (panels c and f) were measured by ELISA. Data are presented as mean ± SEM, n = 10–13.
# [2] = test system: human primary airway epithelial cells; test: IL-6 release from IFNγ + TNFα-stimulated human primary airway epithelial cells; assay type: cell-based; settings: IFNγ + TNFα, n = 7
# Description: In order to determine whether any of the inhibitory effects of the JAK inhibitors could be attributed to cell death, MTT assays were performed at the end of every experiment. […] In order to address this issue, the levels of IL-6 released from cells stimulated with IFNγ + TNFα were measured.
# STAT-1 = STAT-1 DNA binding in BEAS-2B cells (TransAM); assay type: cell-based, human; settings: IFNγ and IFNγ + TNFα stimulation
# Description: STAT phosphorylation, nuclear translocation and DNA binding was determined using TransAM assays (Actif Motif, Rixensart, Belgium). Cells were treated with JAK inhibitors for 30 min prior to stimulation for 1h. Nuclear extracts were prepared using the Actif Motif assay reagents. Briefly, the nuclear extracts (10 μg) were incubated in DNA coated plates for 1h. After washing, antibodies supplied with the TransAM kit that were specific for the active forms of STAT1, STAT3, STAT5A and STAT5B were added to the wells and incubated for a further hour. The plates were washed and a secondary HRP-labelled anti-goat Ig antibody was added and the plates incubated for an hour. After washing, the assay was developed using the TMB substrate provided and the reaction stopped using 2N sulphuric acid. The plates were read at 450nm with a reference filter of 610nm. Data were then normalised to non-stimulated cells and calculated as fold change from baseline.
# After 1 h, nuclear extracts of the cells were prepared and TransAM assays for STAT-1 (panel a) and STAT-3 (panel b) were performed. Data are presented as fold change from baseline ± SEM; n = 4.
# BEAS-2B cells [3] = test: mRNA expression of CXCL9, CXCL10 and CXCL11 in BEAS-2B cells (Taqman RT-PCR); assay type: cell-based, human; settings: BEAS-2b, pretreated 1h, IFNγ or IFNγ with TNFα for 4h
# Description: Total RNA was extracted from cells and reverse transcribed, as described previously. Gene expression was determined by Taqman real-time PCR on a 7500 Real Time PCR system (Applied Biosystems, Life Technologies Ltd, Paisley, UK) using PCR Master Mix Reagent and ‘assays on demand’ (Applied Biosystems). HPRT1 gene expression was used as the housekeeping gene and data presented as δδCT relative to baseline.
# Gene expression of CXCL9 (panels a and b), CXCL10 (panels c and d) and CXCL11 (panels e and f) were quantified by Taqman RT-PCR. Data are presented as fold change form stimulus ± SEM; n = 3 where 1 indicates the level of mRNA induced by IFNγ or IFNγ + TNFα in the absence of inhibitors.
# BEAS-2B cells [4] = test: Release of CXCL9, CXCL10 and CXCL11 from BEAS-2B cells (ELISA), inhibitors added concomitantly with stimulus; assay type: cell-based, human
# Description: as §1
# It was possible that concomitant addition of stimulus and JAK inhibitors may elicit a different inhibitory profile, therefore to address this, experiments were performed. […] Experiments were then performed to determine the effects of both JAK inhibitors in human primary airway epithelial cells in order to determine whether their ability to suppress CXCR3 chemokine release from BEAS-2B cells was reflective of their efficacy in primary cells.
# Media was harvested and the concentrations of CXCL9 (panels a and d), CXCL10 (panels b and e) and CXCL11 (panels c and f) were measured by ELISA. Data are presented as mean±SEM, n = 7–8. (EPS) Click here for additional data file. […]
# After this time, media was harvested and the concentrations of CXCR3 chemokines measured by ELISA. Data are presented as mean±SEM, n=4
compound,measurement,setting,value
C[C@@H]1CCN(C(=O)N2CCCC2)C[C@@H]1N(C)c1ncnc2[nH]ccc12 [PF956980],IC50,"[1]; IFNγ (10ng/ml) 20h, read-out: IC50, release of CXCL9",680 ± 120 nM
same,IC50,"[1]; IFNγ (10ng/ml) 20h, read-out: IC50, release of CXCL10",960 ± 190 nM
same,IC50,"[1]; IFNγ (10ng/ml) 20h, read-out: IC50, release of CXCL11",760 ± 120 nM
same,IC50,"[1]; IFNγ+TNFα (10ng/ml) 20h, read-out: IC50, release of CXCL9",520 ± 170 nM
same,IC50,"[1]; IFNγ+TNFα (10ng/ml) 20h, read-out: IC50, release of CXCL10",2120 ± 240 nM
same,IC50,"[1]; IFNγ+TNFα (10ng/ml) 20h, read-out: IC50, release of CXCL11",1580 ± 330 nM
same,EC50,"[1]; primary cells from COPD patients, IFNγ (10 ng/ml) 20h, read-out: EC50, release of CXCL9",630 ± 90 nM
same,EC50,"[1]; primary cells from COPD patients, IFNγ (10 ng/ml) 20h, read-out: EC50, release of CXCL10",530 ± 10 nM
same,EC50,"[1]; primary cells from COPD patients, IFNγ (10 ng/ml) 20h, read-out: EC50, release of CXCL11",820 ± 250 nM
same,EC50,"[1]; primary cells from COPD patients, IFNγ +TNFα (10 ng/ml) 20h, read-out: EC50, release of CXCL9",590 ± 380 nM
same,EC50,"[1]; primary cells from COPD patients, IFNγ +TNFα (10 ng/ml) 20h, read-out: EC50, release of CXCL10",1840 ± 400 nM
same,EC50,"[1]; primary cells from COPD patients, IFNγ +TNFα (10 ng/ml) 20h, read-out: EC50, release of CXCL11",1920 ± 670 nM
same,EC50,"[1]; primary cells from non-smokers, IFNγ (10 ng/ml) 20h, read-out: EC50, release of CXCL9",880 ± 390 nM
same,EC50,"[1]; primary cells from non-smokers, IFNγ (10 ng/ml) 20h, read-out: EC50, release of CXCL10",810 ± 150 nM
same,EC50,"[1]; primary cells from non-smokers, IFNγ (10 ng/ml) 20h, read-out: EC50, release of CXCL11",660 ± 240 nM
same,EC50,"[1]; primary cells from non-smokers, IFNγ +TNFα (10 ng/ml) 20h, read-out: EC50, release of CXCL9",610 ± 260 nM
same,EC50,"[1]; primary cells from non-smokers, IFNγ +TNFα (10 ng/ml) 20h, read-out: EC50, release of CXCL10",2720 ± 360 nM
same,EC50,"[1]; primary cells from non-smokers, IFNγ +TNFα (10 ng/ml) 20h, read-out: EC50, release of CXCL11",1850 ± 670 nM
same,EC50,"[1]; primary cells from smokers, IFNγ (10 ng/ml) 20h, read-out: EC50, release of CXCL9",550 ± 90 nM
same,EC50,"[1]; primary cells from smokers, IFNγ (10 ng/ml) 20h, read-out: EC50, release of CXCL10",1280 ± 360 nM
same,EC50,"[1]; primary cells from smokers, IFNγ (10 ng/ml) 20h, read-out: EC50, release of CXCL11",780 ± 160 nM
same,EC50,"[1]; primary cells from smokers, IFNγ +TNFα (10 ng/ml) 20h, read-out: EC50, release of CXCL9",350 ± 260 nM
same,EC50,"[1]; primary cells from smokers, IFNγ +TNFα (10 ng/ml) 20h, read-out: EC50, release of CXCL10",1880 ± 410 nM
same,EC50,"[1]; primary cells from smokers, IFNγ +TNFα (10 ng/ml) 20h, read-out: EC50, release of CXCL11",870 ± 130 nM
same,IC50,[2],11400 ± 9000 nM
same,effect on STAT-1 DNA binding,STAT-1,suppressed
same,"effect on expression of CXCL9, CXCL10 and CXCL11 (mRNA)",BEAS-2B cells [3],"suppressed expression of CXCL9, CXCL10 and CXCL11 in a concentration dependent manner"
same,IC50,"BEAS-2B cells [4]; inhibitor concomitant with IFNγ (10 ng/ml) 20h, read-out: IC50, release of CXCL9",300 ± 100 nM
same,IC50,"BEAS-2B cells [4]; inhibitor concomitant with IFNγ (10 ng/ml) 20h, read-out: IC50, release of CXCL10",1100 ± 400 nM
same,IC50,"BEAS-2B cells [4]; inhibitor concomitant with IFNγ (10 ng/ml) 20h, read-out: IC50, release of CXCL11",1100 ± 300 nM
same,IC50,"BEAS-2B cells [4]; inhibitor concomitant with IFNγ+TNFα (10 ng/ml) 20h, read-out: IC50, release of CXCL9",1000 ± 300 nM
same,IC50,"BEAS-2B cells [4]; inhibitor concomitant with IFNγ+TNFα (10 ng/ml) 20h, read-out: IC50, release of CXCL10",4000 ± 1300 nM
